Experimental data from publication PMC3967794 (Journal of medicinal chemistry, 2014).

Key:
[1] = target: T1, human platelet 12-lipoxygenase (12-LOX) (Homo sapiens, UniProt P18054); experiment: Lipoxygenase UV–vis cuvette-based assay, 12-LOX; type: biochemical
T1 sequence (P18054 1-663): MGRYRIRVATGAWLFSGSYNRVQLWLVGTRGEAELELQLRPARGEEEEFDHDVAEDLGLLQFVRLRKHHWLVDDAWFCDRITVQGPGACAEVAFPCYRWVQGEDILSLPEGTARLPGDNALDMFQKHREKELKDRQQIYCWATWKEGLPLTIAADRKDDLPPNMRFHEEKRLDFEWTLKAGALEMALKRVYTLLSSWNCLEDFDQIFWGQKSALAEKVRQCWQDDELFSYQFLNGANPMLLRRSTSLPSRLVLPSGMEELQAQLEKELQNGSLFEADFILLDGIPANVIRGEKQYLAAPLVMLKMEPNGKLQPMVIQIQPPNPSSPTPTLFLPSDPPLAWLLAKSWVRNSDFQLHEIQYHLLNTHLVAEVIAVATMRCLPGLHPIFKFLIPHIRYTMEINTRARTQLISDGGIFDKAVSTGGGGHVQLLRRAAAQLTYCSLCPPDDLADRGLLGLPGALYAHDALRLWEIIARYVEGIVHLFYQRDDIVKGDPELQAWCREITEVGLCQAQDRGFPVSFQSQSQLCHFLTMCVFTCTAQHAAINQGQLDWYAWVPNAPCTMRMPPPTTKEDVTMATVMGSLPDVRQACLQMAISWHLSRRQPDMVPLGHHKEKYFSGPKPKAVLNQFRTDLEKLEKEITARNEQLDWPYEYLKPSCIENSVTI

12-LOX = target: T2, 12-LOX (Homo sapiens, UniProt P18054); experiment: Steady-state inhibition kinetics; type: biochemical
T2 sequence (P18054 1-663): T1 sequence (P18054 1-663)

[2] = in the presence of NADPH
[3] = pH 7.4, 48 h
in vivo = conditions: male, CD1, mouse, po, 30 mg/kg

| SMILES | 12-LOX inhibitory activity (in words) [1] | PBS buffer (pH 7.4) solubility (PBS buffer) [µg/mL] | also measured |
| --- | --- | --- | --- |
| O=S(=O)(Nc1nccs1)c1ccc(NCc2ccccc2)cc1 [Compound 8] | complete loss of activity | – | – |
| Nc1ccccc1CNc1ccc(S(=O)(=O)Nc2nccs2)cc1 [Compound 13] | negated all 12-LOX inhibitory activity | – | – |
| COc1cccc(CNc2ccc(S(=O)(=O)Nc3nc4ccccc4o3)cc2)c1O [Compound 36] | – | >60 | mode of inhibition (12-LOX): mixed inhibitors; microsomal stability T1/2 (rat) [2]: >30 (rat) min; PBS buffer (pH 7.4) stability at 48 h [3]: 100% |
| COc1cccc(CNc2ccc(S(=O)(=O)Nc3nc4ccccc4s3)cc2)c1O [Compound 35, N-(Benzo[d]thiazol-2-yl)-4-((2-hydroxy-3-methoxybenzyl)-amino)benzenesulfonamide] | – | <5 | concentration at which calcium mobilization is reduced significantly (human platelets): 250 nM; AUC(0-inf) (in vivo): 38 µM·h |
| O=S(=O)(Nc1nccs1)c1ccc(NCc2ccccc2O)cc1 [Compound 9] | complete loss of activity | – | – |
